# Values quoted from earlier work in paper PMC8657723, “Novel Pituitary Actions of TAC4 Gene Products in Teleost” (International Journal of Molecular Sciences, 2021).
# Ends that are not written are not given here.
# Tested on: mammals
# Design: method as in PMID 18337115
# Conditions: cited from earlier work
substance,measurement,value
"CRH: corticortropin-releasing hormone (SEEPPISLDLTFHLLREVLEMARAEQLAQQAHSNRKLMEII; ends and bridges not checked; UniProt P06850 154-194, looked up)",food intake and energy expenditure,reduce food intake and induce energy expenditure
